# In patent US7053194B2, “Compositions and methods for p53-mediated repression of gene expression” (Fox Chase Cancer Center, priority 1999, dated 2006):
# How the values were obtained:
# [1] = test system: H1299 human lung adenocarcinoma; assay: Northern analysis of stathmin mRNA in p53-null cells; assay type: cell-based; details: H1299, null for p53
# MCF7 cells = assay: Cyclin-dependent kinase assays; assay type: cell-based, human; details: MCF7 treated with doxorubicin
# Description: Cyclin-dependent kinase assays were performed essentially as described (Harper et al., 1993), using 250 ug of whole cell extract immunoprecipitated with 0.5 ug of polyclonal antisera to cdk2 (Santa Cruz Biotechnology), cyclin E and cyclin A. Following immunoprecipitation and washing, 1 ug of histone H1 (Sigma) was used as a substrate, in kinase reaction buffer (20 mM Tris pH 7.4/7.5 mM MgCl2/1 mM DTT), supplemented with 5 mM sodium fluoride, 1 mM sodium ortho-vanadate, and 125 ng/uL cAMP-dependent protein kinase inhibitor (Sigma). 0.5 uL of ^32P-ATP (NEN, 800 Ci/mmol) was added to each reaction, and 0.5 ug of normal rabbit IgG (Sigma) was used as a negative control. Following incubation at 37 degrees for 20 minutes, reactions were boiled in Laemmli sample buffer and loaded onto 10% SDS-PAGE. Cells for flow cytometry were fixed in ethanol and stained with propidium iodide as described (Murphy et al., Genes & Devel. 10:2971–2980, 1996) and analyzed on a Becton Dickinson FacScan. G1, S (synthesis) and G2/M populations were calculated using the program CellQuest.
# This finding is consistent with flow cytometry data, which indicate that these cells are arrested in G2/M (not shown). As a negative control, normal rabbit IgG is used instead of polyclonal antisera for the immunoprecipitations and kinase assays (lanes 1 and 4).
# melanoma cells (CaCl) = assay: Northern analysis of survivin mRNA after doxorubicin; assay type: cell-based, human; details: 0.5 ug/mL doxorubicin, as early as twelve hours
# Description: MCF-7 cells were maintained in RPMI-1640 supplemented with 10% fetal bovine serum and 100 units/ml of penicillin and streptomycin. The human melanoma cell line CaCl, and the derivative clone expressing the HPV E6 gene, were cultured as described (Ahn et al., Oncogene). The human osteosarcoma cell lines Saos-2 and U2-OS (kindly provided by Peter Adams, Fox Chase Cancer Center), the murine p21 knock-out fibroblasts (kindly provided by James Sherley, MIT) and the human lung adenocarcinoma cell line H1299 were cultured in DMEM supplemented with 10% fetal bovine serum and 100 units/ml of penicillin and streptomycin. Murine Va15 cells, containing the temperature-sensitive Valine 135 allele of p53, were maintained as described (Wu, et al., Genes & Devel. 7:1126–1132, 1993). All cells were grown at 37° C. […] For treatment with ultra-violet light, cells were irradiated with 0–10 J/m2 (as noted) of UV-C with a Spectroline X series ultraviolet lamp, and output was monitored with a traceable UV light meter (Fisher Scientific). […]
# The full-length coding region for survivin was generated by reverse transcription-polymerase chain reaction (RT-PCR) using 5 ug of total RNA from the H1299 human lung adenocarcinoma cell line, using the Access RT-PCR kit (Promega) and the following oligonucleotides: forward 5′ […] […] Autoradiographs were quantitated using NIH image software. […]
# [2] = test system: Saos2 (p53-null) and U20S (wt p53); assay: Western analysis of survivin after doxorubicin in osteosarcoma lines; assay type: cell-based, human; details: Saos2 (p53-null) versus U20S (wt p53), doxorubicin treatment
# Description: (§1) MCF-7 cells were maintained in RPMI-1640 supplemented with 10% fetal bovine serum and 100 units/ml of penicillin and streptomycin. The human melanoma cell line CaCl, and the derivative clone expressing the HPV E6 gene, were cultured as described (Ahn et al., Oncogene). The human osteosarcoma cell lines Saos-2 and U2-OS (kindly provided by Peter Adams, Fox Chase Cancer Center), the murine p21 knock-out fibroblasts (kindly provided by James Sherley, MIT) and the human lung adenocarcinoma cell line H1299 were cultured in DMEM supplemented with 10% fetal bovine serum and 100 units/ml of penicillin and streptomycin. […] For treatment with ultra-violet light, cells were irradiated with 0–10 J/m2 (as noted) of UV-C with a Spectroline X series ultraviolet lamp, and output was monitored with a traceable UV light meter (Fisher Scientific). For drug treatment, cells were treated with 0.5ug/ml adriamycin (doxorubicin, Sigma), or dilution vehicle alone, for twenty-four hours. p53 induction was monitored by western analysis of 100 ug protein as described (Murphy et al., Genes & Devel. 10:2971–2980, 1996), using 0.1ug/ml DO-1 (Ab-6, Calbiochem) or 421 (Ab-1, Calbiochem.
# (§2) Western analysis was performed essentially as described (Murphy et al., 1999). […] Protein concentrations were determined using the Bio-Rad Dc Protein Assay (Bio-Rad). […]
# CaCl and CaCl/E6 = assay: Western analysis of survivin after doxorubicin in melanoma line with or without HPV E6; assay type: cell-based, human; details: CaCl versus CaCl/E6, doxorubicin treatment
# Description: as §1, §2
structure (smiles),measurement,setting,value
"COc1cccc2c1C(=O)c1c(O)c3c(c(O)c1C2=O)C[C@@](O)(C(=O)CO)C[C@@H]3O[C@H]1C[C@H](N)[C@H](O)[C@H](C)O1 [adriamycin, doxorubicin]",effect on stathmin levels,[1],neither TSA nor adriamycin had any effect on stathmin levels
same,"cdk2, cyclin A and cyclin E kinase activities",MCF7 cells,all activities are low
same,cell cycle arrest,MCF7 cells,arrest in G2/M phase
same,mRNA levels for survivin,melanoma cells (CaCl),marked decreases in mRNA levels for survivin
same,survivin protein levels,[2],decreased survivin protein levels only in cells with wt p53 (U20S)
same,survivin protein levels,CaCl and CaCl/E6,down-regulation of survivin protein levels only in parental CaCl cells
